Experimental data: US20230123334A1, “AMINO LIPID COMPOUND, PREPARATION METHOD THEREFOR, AND APPLICATION THEREOF” (SHENZHEN SHENXIN BIOTECHNOLOGY CO., LTD., priority 2020, published 2023)

Tests used:
Type in all cases: cell-based
[1] = tested on: embryonic stem cells (hESC2); experiment: Screening as mRNA vectors in embryonic stem cells; conditions: 50 ng EGFP mRNA per well
In short: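 EGFP mRNA (50 ng per well) transfected into hESC2 cells grown in mTeSR1; Lipofectamine Stem served as positive control. Read-out: GFP-fluorescent cells as percentage of total cells.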

cardiomyocytes [2] = experiment: Screening as DNA vectors in cardiomyocytes; parameters: concentration or dose not given beside the values; conditions: method as Example 4
In short: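 hESC-derived cardiomyocytes in DMEM with 10% FBS were transfected with a GFP DNA vector; Lipofectamine Stem served as positive control. Read-out: percentage of GFP-positive cells relative to total cells counted by Hoechst nuclear stain.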

HEK293 cells [3] = experiment: Preliminary screening as mRNA vectors, EGFP mRNA transfection of HEK293 cells; conditions: HEK293 cells, 96-well plates, EGFP mRNA 50 ng per well; percentage of GFP fluorescent cells relative to total number of cells (Hoechst)
In short: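 HEK293 cells in DMEM plus 10% FBS transfected in 96-well format with 50 ng EGFP mRNA per well; Lipofectamine2000 served as positive control. Read-out is the percentage of GFP-fluorescent cells among total cells, counted by Hoechst nuclear stain.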

cardiomyocytes [4] = experiment: Screening as mRNA vectors in cardiomyocytes; conditions: 50 ng EGFP mRNA per well
In short: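 Cardiomyocytes differentiated from hESC, in DMEM with 10% FBS, were transfected with 50 ng EGFP mRNA per well. The read-out was GFP-positive cells as a percentage of Hoechst-stained nuclei, with Lipofectamine Stem as positive control.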

Hela cells [5] = experiment: Transfection of Hela cell line, mRNA vectors; conditions: 50 ng EGFP mRNA per well
In short: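 Transfection efficiency was scored as GFP-fluorescent cells over Hoechst-stained total nuclei, with Lipofectamine2000 as reference reagent. Each well of HeLa cells, grown in DMEM plus 10% FBS, received 50 ng EGFP mRNA.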

[6] = tested on: embryonic stem cells (hESC2); experiment: Screening as DNA vectors in embryonic stem cells, flow cytometry; conditions: 75 ng plasmid DNA, 48 hours after transfection, flow cytometer
In short: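 hESC2 cells in mTeSR1 on matrigel transfected with 75 ng pSin-EGFP-IRES-Puro complexed with amino lipid/DOPE liposomes formed in sodium acetate pH 5.6; 37 °C, 5% CO2. After 48 h, GFP-positive cells counted by flow cytometry (≥2000 cells), efficiency also expressed relative to Lipofectamine Stem.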

HEK293 cells [7] = experiment: Preliminary screening as DNA vectors, GFP transfection of HEK293 cells; conditions: HEK293 cells; lipid/DOPE liposome with 75 ng plasmid DNA (psin-EGFP-IRES-Puro); number of cells expressing GFP divided by total number of nuclei (Hoechst)
In short: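 HEK293 cells in DMEM/10% FBS transfected with 75 ng EGFP plasmid per well complexed with amino lipid/DOPE liposomes in pH 5.6 sodium acetate. Hoechst nuclear stain added 20-24 h post-transfection, then cells cultured another 20-24 h. Confocal imaging gives GFP-positive cells as % of total nuclei.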

Hela cells [8] = experiment: Transfection of Hela cell line, DNA vectors; conditions: 75 ng plasmid DNA, GFP cells / total cells
In short: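 Amino lipid/DOPE liposomes in sodium acetate pH 5.6 were complexed with 75 ng psin-EGFP-IRES-Puro plasmid for 30 min at room temperature, then mixed with 3-5×10^4 Hela cells in DMEM/10% FBS at 37° C. Hoechst stain after 20-24 h, imaging after a further 20-24 h. Efficiency = GFP-positive cells / total nuclei.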

MCF7 cells [9] = experiment: Transfection of MCF7 cell line, DNA vectors; parameters: concentration or dose not given beside the values; conditions: plasmid DNA, GFP cells / total cells
In short: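 Read-out: GFP-positive cells as % of all Hoechst-stained nuclei after 96-well transfection of MCF7 cells grown in serum-supplemented DMEM. Positive control was Lipofectamine2000, used per manufacturer's protocol.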

MCF7 cells [10] = experiment: Transfection of MCF7 cell line, mRNA vectors; conditions: 50 ng EGFP mRNA per well
In short: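 Efficiency was scored as the fraction of GFP-fluorescent cells over all Hoechst-counted cells after delivery of 50 ng EGFP mRNA per well. Cells were MCF7 grown in serum-supplemented DMEM, and Lipofectamine2000 served as reference.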

SMILES | Absolute mRNA transfection efficiency in embryonic stem cells [1] [%] | Absolute DNA transfection efficiency in cardiomyocytes (cardiomyocytes [2]) [%] | Absolute mRNA transfection efficiency in HEK293 cells (HEK293 cells [3]) [%] | Absolute mRNA transfection efficiency in cardiomyocytes (cardiomyocytes [4]) [%] | Absolute mRNA transfection efficiency in Hela cells (Hela cells [5]) [%] | Absolute DNA transfection efficiency in embryonic stem cells [6] [%] | Absolute DNA transfection efficiency in HEK293 cells (HEK293 cells [7]) [%] | Absolute DNA transfection efficiency in Hela cells (Hela cells [8]) [%] | Absolute DNA transfection efficiency in MCF7 cells (MCF7 cells [9]) [%] | Absolute mRNA transfection efficiency in MCF7 cells (MCF7 cells [10]) [%]
CCCCCCCCCCCCCCSc1nc(NCC2CCN(C)CC2)nc(SCCCCCCCCC)n1 [Compound S9S14D10] | 23.1 | 7.6 | 91.0 | 34.4 | 7.5 | 0.7 | 14.5 | 7.2 | 50.5 | 50.3
CCCCCCCCCCCCCCCSc1nc(NCCN2CCCC2)nc(SCCCCCCCCC)n1 [Compound S9S15D3] | 9.2 | 0.3 | 2.5 | 6.6 | 1.4 | 1.8 | 2.5 | 1.4 | 1.4 | 1.1
CCCCCCCCCCCCCCCSc1nc(NCCN2CCN(C)CC2)nc(SCCCCCCCCC)n1 [Compound S9S15D5] | 33.4 | 12.8 | 41.3 | 1.9 | 4.4 | 6.2 | 8.9 | 4.4 | 23.0 | 27.0
CCCCCCCCCCCCCCCSc1nc(NCCCN(C)C)nc(SCCCCCCCCC)n1 [Compound S9S15D6] | 2.5 | 6.9 | 87.2 | 12.9 | 23.7 | 3.7 | 47.4 | 23.7 | 48.4 | 47.3
CCCCCCCCCCCCCCCSc1nc(NCCCN2CCOCC2)nc(SCCCCCCCCC)n1 [Compound S9S15D8] | 0.4 | 2.0 | 5.4 | 0.6 | 11.1 | 1.9 | 22.2 | 11.1 | 3.0 | 13.5
CCCCCCCCCCCCCCCSc1nc(NCCCN2CCN(C)CC2)nc(SCCCCCCCCC)n1 [Compound S9S15D9] | 13.3 | 1.3 | 40.4 | 7.1 | 12.6 | 21.6 | 25.3 | 12.6 | 22.5 | 27.6
